From US20090111824A1, “AMIDE LINKED HETEROAROMATIC DERIVATIVES AS MODULATORS OF MGLUR5” (AstraZeneca AB, priority 2007, published 2009) come the findings set out here.

Molecules are shown by their SMILES.

A short description of series [1]: Determination of brain to plasma ratio in rat. Format: in vivo. The settings on record: brain and plasma, female Sprague Dawley rats, read-out: Brain/Plasma Ratio of compound in Rat. The method, then: Brain to plasma ratios are estimated in female Sprague Dawley rats. The compound is dissolved in water or another appropriate vehicle. For determination of brain to plasma ratio the compound is administrated as a subcutaneous, or an intravenous bolus injection, or an intravenous infusion, or an oral administration. At a predetermined time point after the administration a blood sample is taken with cardiac puncture. The rat is terminated by cutting the heart open, and the brain is immediately retained. The blood samples are collected in heparinized tubes and centrifuged within 30 minutes, in order to separate the plasma from the blood cells. The plasma is transferred to 96-well plates and stored at −20° C. until analysis. The brains are divided in half, and each half is placed in a pre-tarred tube and stored at −20° C. until analysis. Prior to the analysis, the brain samples are thawed and 3 mL/g brain tissue of distilled water is added to the tubes. The brain samples are sonicated in an ice bath until the samples are homogenized. Both brain and plasma samples are precipitated with acetonitrile. After centrifugation, the supernatant is diluted with 0.2% formic acid. Analysis is performed on a short reversed-phase HPLC column with rapid gradient elution and MSMS detection using a triple quadrupole instrument with electrospray ionisation and Selected Reaction Monitoring (SRM) acquisition. Liquid-liquid extraction may be used as an alternative sample clean-up. The samples are extracted, by shaking, to an organic solvent after addition of a suitable buffer. An aliquot of the organic layer is transferred to a new vial and evaporated to dryness under a stream of nitrogen. After reconstitution of the residuals the samples are ready for injection onto the HPLC column.

The target of series [2] is T1, human mGluR5d (Homo sapiens, UniProt P41594).
T1 construct: expressed in transfected cells; The cells are kept under Hygromycin B and Zeocin selection; The separate IP3 assay names GHEK cells
Kind of series: FLIPR assay, functional assessment of mGluR5 antagonism (intracellular calcium mobilization). Format: cell-based. The conditions noted are these: cells expressing human mGluR5d; read-out: FLIPR hmGluR5d. An excerpt: Functional Assessment of mGluR5 Antagonism in Cell Lines Expressing mGluR5D
The properties of the compounds of the invention can be analyzed using standard assays for pharmacological activity. Examples of glutamate receptor assays are well known in the art as described in for example Aramori et al., Neuron 8:757 (1992), Tanabe et al., Neuron 8:169 (1992), Miller et al., J. Neuroscience 15: 6103 (1995), Balazs, et al., J. Neurochemistry 69:151 (1997). The methodology described in these publications is incorporated herein by reference. Conveniently, the compounds of the invention can be studied by means of an assay (FLIPR) that measures the mobilization of intracellular calcium, [Ca^2+]i in cells expressing mGluR5 or another assay (IP3) that measures inositol phosphate turnover.
Cells expressing human mGluR5d as described in WO97/05252 cultured in a mixture of high glucose DMEM with Glutamax (31966-021)(500 mL), 10% dialyzed fetal bovine serum (Hyclone #SH30079.03)(56 mL), 200 μg/mL Hygromycin B (Invitrogen 45-0430, 50 mg/mL)(2.2 mL), 200 μg/mL Zeocin (Invitrogen #R250-01; 100 mg/l mL)(1.1 mL) are seeded at a density of 100,000 cells per well on collagen coated clear bottom 96-well plates with black sides and cells were allowed to adhere over night before experiments. All assays are done in a buffer containing 146 mM NaCl, 5 mM KCl, 1 mM MgCl2, 1 mM CaCl2, 20 mM HEPES, 1 mg/mL glucose and 1 mg/mL BSA Fraction IV (pH 7.4). Cell cultures in the 96-well plates are loaded for 60 minutes in the above mentioned buffer containing 6 μM of the acetoxymethyl ester form of the fluorescent calcium indicator fluo-3 (Molecular Probes, Eugene, Oreg.) in 0.025% pluronic acid (a proprietary, non-ionic surfactant polyol—CAS Number 9003-11-6). […] The fluorescence signal is sampled 50 times at 1-second intervals followed by 3 samples at 5-second intervals immediately after each of the two additions. Responses are measured as the difference between the peak heights of the response to agonist, less the background fluorescence within the sample period. […]
A general note: Calcium flux is commonly read through the fluorescence of an indicator in the cells.

T1 sequence (P41594 21-942 isoform P41594-3 limits assumed): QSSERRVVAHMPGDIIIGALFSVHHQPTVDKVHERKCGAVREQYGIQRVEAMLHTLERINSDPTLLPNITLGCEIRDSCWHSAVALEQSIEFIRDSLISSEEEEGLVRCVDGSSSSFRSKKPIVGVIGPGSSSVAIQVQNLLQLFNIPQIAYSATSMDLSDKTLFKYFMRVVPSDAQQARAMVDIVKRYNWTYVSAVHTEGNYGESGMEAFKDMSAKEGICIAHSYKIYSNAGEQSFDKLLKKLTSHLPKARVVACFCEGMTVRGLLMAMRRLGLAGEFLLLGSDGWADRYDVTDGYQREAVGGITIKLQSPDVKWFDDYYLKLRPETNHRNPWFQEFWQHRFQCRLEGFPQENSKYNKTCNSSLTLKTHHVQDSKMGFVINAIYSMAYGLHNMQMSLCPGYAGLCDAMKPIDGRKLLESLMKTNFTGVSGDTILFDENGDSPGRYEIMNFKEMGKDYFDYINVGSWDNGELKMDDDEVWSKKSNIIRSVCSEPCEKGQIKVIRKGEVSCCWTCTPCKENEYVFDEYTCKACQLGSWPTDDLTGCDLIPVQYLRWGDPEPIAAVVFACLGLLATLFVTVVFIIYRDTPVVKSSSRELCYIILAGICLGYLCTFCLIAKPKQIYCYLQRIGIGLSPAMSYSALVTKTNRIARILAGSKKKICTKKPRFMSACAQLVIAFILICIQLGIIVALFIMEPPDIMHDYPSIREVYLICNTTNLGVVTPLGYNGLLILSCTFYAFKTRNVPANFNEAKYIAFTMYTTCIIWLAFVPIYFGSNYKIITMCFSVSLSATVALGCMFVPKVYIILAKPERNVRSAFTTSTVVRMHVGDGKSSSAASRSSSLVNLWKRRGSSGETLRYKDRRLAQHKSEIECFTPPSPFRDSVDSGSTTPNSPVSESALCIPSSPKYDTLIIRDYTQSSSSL

As for `CN(C(=O)c1cc(-c2cccc(Cl)c2)on1)c1nnc(-c2ccncc2)n1C` [Example 1, 5-(3-Chlorophenyl)-N-methyl-N-(4-methyl-5-pyridin-4-yl-4H-1,2,4-triazol-3-yl)isoxazole-3-carboxamide], the Kp in series [1] came to 0.26. For the same compound, in series [2], the IC50 amounted to 37 nM.
Consider `Cc1cccc(-n2nnc(C(=O)N(C)c3nnc(-c4cn[nH]c(=O)c4)n3C)n2)c1` [Example 4, N-Methyl-N-[4-methyl-5-(6-oxo-1,6-dihydropyridazin-4-yl)-4H-1,2,4-triazol-3-yl]-2-(3-methylphenyl)-2H-tetrazole-5-carboxamide], for which, in series [1], the Kp is less than 0.01. In series [2], the IC50 stood at 567 nM.
As to `CN(C(=O)c1cc(-c2cccc(Cl)c2)on1)c1nnc(-c2cn[nH]c(=O)c2)n1C` [Example 3, 5-(3-Chlorophenyl)-N-methyl-N-[4-methyl-5-(6-oxo-1,6-dihydropyridazin-4-yl)-4H-1,2,4-triazol-3-yl]isoxazole-3-carboxamide], the Kp in series [1] stood at 0.19. The IC50 in series [2] was found to be 62 nM.
